Where a SMILES comes first, the peptide text is derived from it. Bridges are numbered along the chain shown (N, C = ends).

From ChEMBL document CHEMBL1914297, “Regulators of G protein signaling (RGS) proteins as drug targets: modulating G-protein-coupled receptor (GPCR) signal transduction” (J Med Chem, 2011) come the findings set out here.

Assay [1] can be described thus: Selectivity for RGS4 over RGS8.
Assay [2] can be described thus: Selectivity for RGS4 over RGS16.
For assay [3], the species on record is Homo sapiens. As to the kind of experiment: Selectivity ratio of IC50 for human RGS4 expressed in Escherichia coli BL21 (DE3) to IC50 for human RGS8 expressed in Escherichia coli BL21 (DE3).
Assay [4] is filed under the species Homo sapiens. Kind of assay: Selectivity ratio of IC50 for human RGS4 expressed in Escherichia coli BL21 (DE3) to IC50 for human RGS16 expressed in Escherichia coli BL21 (DE3).
The target in assay [5] is Regulator of G-protein signaling 4 (Homo sapiens) (UniProt P49798). Kind of assay: Inhibition of RGS4 GTPase accelrating activity.
Sequence of Regulator of G-protein signaling 4 (Homo sapiens) (P49798 whole entry, looked up): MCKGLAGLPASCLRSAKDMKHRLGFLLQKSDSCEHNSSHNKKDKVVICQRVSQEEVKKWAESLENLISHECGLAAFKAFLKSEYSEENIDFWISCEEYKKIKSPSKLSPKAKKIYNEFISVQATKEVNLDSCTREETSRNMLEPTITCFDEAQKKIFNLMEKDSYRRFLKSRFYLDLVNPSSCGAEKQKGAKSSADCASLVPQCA

In the case of `Cc1ccc(-n2sc(=O)n(Cc3ccc(F)cc3)c2=O)cc1`, the Selectivity ratio in assay [1] and in assay [2] was 100 throughout.

In the case of `Cc1cccn2c(=O)c(/C=C(\C#N)c3nc4ccccc4s3)c(Oc3ccc(F)cc3)nc12`, the Ratio IC50 in the assay listed under Homo sapiens [3] and in the assay listed under Homo sapiens [4] was 10 throughout.

In turn, `CC[C@H](C)[C@@H]1NC(=O)CNC(=O)[C@H]([C@@H](C)O)NC(=O)[C@@H](NC(=O)[C@H](CCCCN)NC(=O)[C@@H](NC(C)=O)C(C)C)CSSC[C@@H](C(=O)N[C@@H](CCC(=O)O)C(N)=O)NC1=O` (Ac-VKCTGICE-NH2; disulfide 3-7) returned an INH in assay [5] of 26 µM.

With `Cc1cccc(Oc2nc3c(C)cccn3c(=O)c2/C=C(\C#N)c2nc3ccccc3s2)c1`, the Ratio IC50 in the assay filed under Homo sapiens [3] and in the assay listed under Homo sapiens [4] was 10 throughout.
